Measurements: article PMC6270570, “New Flurbiprofen Derivatives: Synthesis, Membrane Affinity and Evaluation of in Vitro Effect on β-Amyloid Levels” (Molecules, 2013)
Read-outs that look alike come from different tables or passages of the source.

Key:
[1] = IAM-HPLC affinity for membrane phospholipids (logKIAM/W); format: physicochemical; conditions: IAM.PC.MG column, pH 7.0 phosphate buffer/acetonitrile, extrapolated to 100% aqueous eluent
Method: n-Octanol/water partition coefficients were theoretically calculated by the program clogP for windows version 2.0 (Biobyte Corp., Claremont, CA, USA). Affinity for membrane phospholipids, so called “phospholipophilicity”, was measured by HPLC on a phospholipid stationary phase. […] liquid chromatograph (Waters-Millipore, Milford, MA, USA), equipped with a 7125 Rheodyne injection valve and a 486 UV detector (Waters) set at 246 nm, was used. The column was an IAM.PC.MG (Immobilized Artificial Membrane-PhosphatidylCholine-MethylGlycolate) (4.6 mm × 150 mm) (Regis Chemical Company, Morton Grove, IL, USA). The mobile phase was 0.01 M phosphate buffer at pH 7.0 and acetonitrile at percentages ranging from 10 to 35 percent (v/v) (from 1.0 to 4.0 mL/min). The chromatography was carried out at room temperature. All samples were dissolved in methanol (ca. 10^-3 M) and 20 μL samples were injected in the chromatograph. Chromatographic retention data are expressed as the logarithm of the capacity factor, log k, defined as: log k = log [(tr - t0)/t0] (1) where tr and t0 are the retention times of the drug and a non-retained compound (citric acid), respectively. The log k values relative to 100% aqueous eluent (logKIAM/W) were calculated by performing a polycratic method of extrapolation. Each compound was eluted with at least three different mobile phases containing acetonitrile in different percentages (φ). […] All values of log k reported are the average of at least three measurements; the 95% confidence interval never exceeded 0.04 for each log k value. Possible occurrence of retention changes due to column aging was monitored by checking the retention times of five test compounds (amlodipine, p-nitroaniline, toluene, isradipine, and ketoprofen).

[2] = tested on: Aβ-42; assay: Western blotting of Aβ-42 expression in CTXTNA2 astrocytes (in vitro γ-secretase activity); format: cell-based, rat; conditions: 24 h
Method: CTXTNA2 cell line, established from primary cultures of type 1 astrocytes from brain frontal cortex tissue of 1 day old rats, was obtained by ECACC (Salisbury, UK). Cells have been maintained in DMEM, 10% FBS at 37 °C, 5% CO2 until sub-confluence and incubated for 24 h with a DMSO solution of drug (concentrations ranging from 1 µM to 100 µM). For detection of cell viability, a Trypan blue dye exclusion test has been performed.
Cell lysates (20 µg) have been electrophoresed and transferred to nitrocellulose membrane. Nitrocellulose membranes, blocked in 5% non-fat milk, 10 mmol/L Tris pH 7.5, 100 mmol/L NaCl, 0.1% Tween-20, have been probed with mouse APP (Millipore, Billerica, MA, USA) and Aβ (Alpha Diagnostic Intl, San Antonio, TX, USA) monoclonal antibodies (Santa Cruz Biotechnology, Santa Cruz, CA, USA), then incubated in the presence of specific enzyme conjugated IgG horseradish peroxidase. Immunoreactive bands have been detected by ECL detection system (Amersham Intl., Buckinghamshire, UK) and analysed by densitometry. Densitometric values, expressed as Integrated Optical Intensity (I.O.I.), have been estimated in a CHEMIDOC XRS system by the QuantiOne 1-D analysis software (BioRad, Richmond, CA, USA). Values obtained have been normalized basing on densitometric values of internal β tubulin. Statistical analysis has been performed using the analysis of variance (ANOVA). Results have been expressed as mean ± SD. Values of p < 0.05 have been considered statistically significant.

[3] = PAMPA-GI permeability (egg lecithin in dodecane); format: in vitro ADME; conditions: read-out: PAMPA-GI Pe
Method: (§1) The following protocol was applied to measure the Pe through the artificial membrane to predict oral absorption and BBB permeation. In order to study the g.i. permeability, a 2% solution (w/v) of egg lecithin (phosphatidyl choline > 98%, PC) in dodecane was employed as an artificial membrane solution. The effective permeability of BBB was measured using phospholipid mixture from porcine polar brain lipid extract, composed by PC 12.6%, phosphatidylethanolamine (PE) 33.1%, phosphatidylserine (PS) 18.5%, phosphatidylinositol (PI) 4.1%, phospatidic acid (PA) 0.8% and 30.9% of other compounds (purchased from Avantis Polar Lipids, Alabaster, AL, USA). Each donor filtration plate well was then impregnated with 5 µL of this solution carefully, and immediately after 150 µL of phosphate buffer (pH 7.4/pH 6.5), containing co-drug 1 500 µM and iPrOH 20% as co-solvent was added. Then the drug-filled donor plate was placed into the acceptor plate that had been prefilled with the same buffer (300 µL) as acceptor solution. After plate lid was replaced, the resulting assembled donor-acceptor plates were incubated at r.t. for 2 h for PAMPA-GI and 18 h for PAMPA-BBB, following which drugs concentration in the acceptor and donor solutions were determined by HPLC [37].
(§2) Log Pe can be calculated from the equation below: [drawing 10] (2) where Pe is the effective permeability coefficient (cm x s^−1), VD is volume of donor compartment (0.15 cm^3) and VA is volume of acceptor compartment (0.30 cm^3), A is effective filter area (0.28 cm^2), t is incubation time for the assay (s), Cacceptor is the concentration of the compound in the acceptor compartment at the completion of the assay, and Cequilibrium is the concentration of compound at theoretical equilibrium.

[4] = PAMPA-BBB permeability (porcine polar brain lipid extract); format: in vitro ADME; conditions: PAMPA; pH 7.4, 18 h of incubation; read-out: PAMPA-BBB Pe
Method: as §1, §2

[5] = tested on: APP; conditions: 24 h
Method: For detection of cell viability, a Trypan blue dye exclusion test has been performed [33].
Cell lysates (20 µg) have been electrophoresed and transferred to nitrocellulose membrane. […] Immunoreactive bands have been detected by ECL detection system (Amersham Intl., Buckinghamshire, UK) and analysed by densitometry. Densitometric values, expressed as Integrated Optical Intensity (I.O.I.), have been estimated in a CHEMIDOC XRS system by the QuantiOne 1-D analysis software (BioRad, Richmond, CA, USA). Values obtained have been normalized basing on densitometric values of internal β tubulin. Statistical analysis has been performed using the analysis of variance (ANOVA). Results have been expressed as mean ± SD. Values of p < 0.05 have been considered statistically significant.

| Compound | melting point | LogKIAM/W [1] | Expression of Aβ-42 ([2]; 1 µM) | Expression of Aβ-42 ([2]; 10 µM) | Expression of Aβ-42 ([2]; 100 µM) | Papp at 2 h, 500 µM ([3]; pH 6.5, 2 h of incubation) | Papp at 2 h, 500 µM ([3]; pH 7.4, 2 h of incubation) | Papp at 18 h, 500 µM [4] | Expression of APP ([5]; 1 µM) | Expression of APP ([5]; 10 µM) | Expression of APP ([5]; 100 µM) |
| --- | --- | --- | --- | --- | --- | --- | --- | --- | --- | --- | --- |
| C[C@H](NC(=O)[C@H](C)c1ccc(-c2ccccc2)c(F)c1)C(=O)N[C@H](C(=O)OC(C)(C)C)c1ccccc1 [Compound 1, tert-Butyl (2S)-({N-[(2R)-2-(2-fluoro-1,1'-biphenyl-4-yl)propanoyl]-L-alanyl}amino)(phenyl)acetate] | 105 to 107 °C | 3.67 | (29.2 ± 1.2) × 10^−2 | (43.5 ± 1.6) × 10^−2 | (45.8. ± 1.3) × 10^−2 | 3.7 ×10⁻⁶ cm/s | 4.8 ×10⁻⁶ cm/s | 2.4 ×10⁻⁶ cm/s | (93.1 ± 3.8) × 10^−2 | (89.4 ± 3.2) × 10^−2 | (120 ± 3.2) × 10^−2 |
| CC(C)[C@H](O)C(=O)N[C@@H](C)C(=O)N[C@@H]1C(=O)N(C)CCc2ccccc21 [LY-450139, reference compound] |  | 0.11 | (9.4. ± 0.3) × 10^−2 | (5.1 ± 0.1) × 10^−2 | (5.4 ± 0.2) × 10^−2 | 1.6 ×10⁻⁶ cm/s | 1.8 ×10⁻⁶ cm/s | 1.4 ×10⁻⁶ cm/s | (65.9 ± 2.3) × 10^−2 | (60.0 ± 1.6) × 10^−2 | (58.8 ± 2.5) × 10^−2 |
| C[C@H](NC(=O)Cc1cc(F)cc(F)c1)C(=O)N[C@H](C(=O)OC(C)(C)C)c1ccccc1 [DAPT, reference compound] |  | 1.61 | (8.3 ± 0.2) × 10−2 | (6.4 ± 0.1) × 10−2 | (5.5 ± 0.3) × 10−2 | 2.5 ×10⁻⁶ cm/s | 2.6 ×10⁻⁶ cm/s | 2.2 ×10⁻⁶ cm/s | (65.4 ± 2.8) × 10−2 | (62.1 ± 2.8) × 10−2 | (58.3 ± 1.9) × 10−2 |
| C[C@@H](C(=O)N[C@@H]1C(=O)N(C)c2ccccc2-c2ccccc21)c1ccc(-c2ccccc2)c(F)c1 [Compound 5, (2R)-2-(2-Fluoro-1,1'-biphenyl-4-yl)-N-[(7S)-5-methyl-6-oxo-6,7-dihydro-5H-dibenzo[b,d]azepin-7-yl]propanamide] | 102 to 103 °C | 3.93 | (17.4. ± 0.3) × 10^−2 | (17.1 ± 0.6) × 10^−2 | (17.4. ± 0.5) × 10^−2 |  |  |  | (41.1 ± 1.7) × 10^−2 | (44.2 ± 2.1) × 10^−2 | (49.2 ± 3.2) × 10^−2 |
| C[C@H](C(=O)O)c1ccc(-c2ccccc2)c(F)c1 [S-Flurbiprofen, reference compound] |  |  | (18.8. ± 0.6) × 10^−2 | (19.0 ± 0.7) × 10^−2 | (15.4 ± 0.3) × 10^−2 |  |  |  | (60.6 ± 2.5) × 10^−2 | (65.2 ± 1.8) × 10^−2 | (53.2 ± 1.9) × 10^−2 |
